Measured values from patent US6410535B1, “Prophylactic or therapeutic agents for diseases having vascular dysfunction associated with insulin resistance” (Suntory Limited, priority 1998, dated 2002).
Counter-ions that a name gives are not always drawn.

Assays:
[1] = as reported in Japanese Patent Public Disclosure No. 25323/84; cited from earlier work
[2] = rat, in vivo, po
[3] = target: T1, endothelial NOS (eNOS) (Rattus norvegicus, UniProt Q62600); experiment: Endothelial NOS activity in thoracic aorta sections; type: in vivo, Sprague-Dawley rats; conditions: for eNOS activity, Average: 10 mg/kg/day oral, 8 weeks
T1 construct: After 8 weeks, the thoracic aorta was collected; from tissue; host or cells: thoracic aorta sections with endothelium (EC (+)) of Sprague-Dawley rats
Protocol: (§1) Male Sprague-Dawley rats (150 g, supplied from Charles River) were used to prepare a model group with insulin resistance induced by fructose feed loading (hereinafter referred to as “FR group”) according to the procedure described by Hwang et al. (Hwang, I-H. et al., Hypertension 10:512, 1987). A control group grown with a starch feed (hereinafter referred to as “CTR group”) was also prepared (FR group: n=16; CTR group: n=16). FR group received a feed containing 67% (hereinafter meaning % by weight) carbohydrate (containing 98% fructose available from Oriental Yeast Co., Ltd.), 13% fat and 20% protein, while CTR group received a feed containing 58% carbohydrate, 12% fat and […]. […] After 8 weeks, the thoracic aorta was collected. For each group, endothelium-separated sections (EC (−)) and non-separated sections (EC (+)) were prepared and examined for superoxide anion (O2^−) production level, endothelial NOS (eNOS) activity and endothelium-dependent vasorelaxation.
(§2) Group-to-group statistic analyses were made by one-way ANOVA, with the significance level being p<0.05. Multiple comparison was made by Bonferronl/Dunn, with the significance level being p<0.05.
Measurement of eNOS activity was made according to Rees, D. et al., Hypertension 28: 367, 1996.

[4] = test system: thoracic aorta tissue sections; experiment: Superoxide anion (O2−) production level in thoracic aorta tissue sections, lucigenin-enhanced chemiluminescence; type: in vivo, Sprague-Dawley rats; conditions: for O2− production level, Average: 10 mg BH4 dihydrochloride/kg/day oral, 8 weeks
Protocol: as §1, §2
Measurement of O2^− production level was made by the lucigenin-enhanced chemiluminescence method (Ohara et al., J. Clin. Invest. 91: 2546, 1993).

[5] = test system: thoracic aorta sections; experiment: Endothelium-dependent vasorelaxation induced by calcium ionophore (A23187), isometric tensiometry; type: in vivo, Sprague-Dawley rats; conditions: FR group, EC (+), A23187 3×10^−7 M
Protocol: as §1
Group-to-group statistic analyses were made by one-way ANOVA, with the significance level being p<0.05. Multiple comparison was made by Bonferronl/Dunn, with the significance level being p<0.05. […]

[6] = test system: thoracic aorta sections; experiment: Endothelium-dependent vasorelaxation induced by acetylcholine, isometric tensiometry; type: in vivo, Sprague-Dawley rats; conditions: for Endothelium-dependent vasorelaxation induced by acetylcholine, Average / Endothelium-dependent vasorelaxation induced by acetylcholine, Average (TABLE 3): 10 mg/kg/day oral, 8 weeks; for Endothelium-dependent vasorelaxation induced by acetylcholine, Average: acetylcholine 10^−5 M, vs 10^−4 M papaverine; for Endothelium-dependent vasorelaxation induced by acetylcholine, Average (TABLE 3): repeat print of Table 3
Protocol: as §1, §2
Measurement of endothelium-dependent vasorelaxation was made by the isometric tensiometry (Toda, N. et al., Stroke 24: 1584, 1993) using ink-writing oscillographs (Nippon Kohden Corporation) and a force-displacement transducer (Nippon Kohden Corporation). Data were shown as % maximum relaxation vs. the maximum relaxation induced by 10^−4 M papaverine after aortic sections were partially precontracted with 1-3×10^−7 M 1-phenylephrine. Endothelium-dependent vasorelaxation induced by acetylcholine (10^−5M) and calcium ionophore (A23187, Sigma) (3×10^−7 M) in EC (+) of each of the 4 groups are shown in Tables 3 and 4, respectively.

[7] = CTR + BH4 group (starch feed), EC (+)
[8] = FR + BH4 group (fructose-fed, insulin resistant), EC (+)

C[C@H](O)[C@H](O)C1CNc2nc(N)[nH]c(=O)c2N1 (stereo partly drawn) [(6R,S)-5,6,7,8-tetrahydrobiopterin]
toxicity (in words) [1]: only slightly toxic

CC(O)C(O)C1CNc2nc(N)[nH]c(=O)c2N1 [BH4 dihydrochloride, (6R)-L-erythro-5,6,7,8-tetrahydrobiopterin]
acute toxicity [2]: ≥ 2 g/kg (body weight)

CC(O)C(O)C1CNc2nc(N)[nH]c(=O)c2N1 [BH4, (6R)-L-erythro-5,6,7,8-tetrahydrobiopterin]
eNOS activity, Average [3, 7]: 57.0 pmol/min/mg protein
change of eNOS activity by BH4 administration (in words) ([3]; CTR group): any significant change was not observed
eNOS activity, Average [3, 8]: 60.2 pmol/min/mg protein
change of eNOS activity by BH4 administration (in words) ([3]; FR group, EC (+)): significantly (p<0.001) improved
O2− production level, Average [4, 7]: 189.3 100 cpm/mg dry weight
change of O2− production level by BH4 administration (in words) ([4]; CTR group): any significant change was not observed
O2− production level, difference among the 4 groups (in words) ([4]; EC (−) endothelium-separated sections): No significant difference
O2− production level, Average [4, 8]: 118.0 100 cpm/mg dry weight
change of O2− production level by BH4 administration (in words) ([4]; FR group, EC (+)): significantly (p<0.001) decreased
change of calcium ionophore-induced endothelium-dependent vasorelaxation by BH4 administration (in words) [5]: significantly (p<0.001) recovered
Endothelium-dependent vasorelaxation induced by acetylcholine, Average ([6]; CTR + BH4 group, EC (+)): 92.9 % maximum relaxation
Endothelium-dependent vasorelaxation induced by acetylcholine, Average (TABLE 3) ([6]; CTR + BH4 group, EC (+)): 92.9 % maximum relaxation
change of endothelium-dependent vasorelaxation by BH4 administration (in words) ([6]; CTR group): any significant change was not observed
Endothelium-dependent vasorelaxation induced by acetylcholine, Average ([6]; FR + BH4 group, EC (+)): 82.6 % maximum relaxation
Endothelium-dependent vasorelaxation induced by acetylcholine, Average (TABLE 3) ([6]; FR + BH4 group, EC (+)): 82.6 % maximum relaxation
change of acetylcholine-induced endothelium-dependent vasorelaxation by BH4 administration (in words) ([6]; FR group, EC (+)): significantly (p<0.001) recovered
